# Results from patent US20230151065A1, “MULTI-DISULFIDE-BOND LONG-CHAIN PEPTIDE WITH NEURO[…], PHARMACEUTICAL COMPOSITION AND APPLICATION” (priority 2018, published 2023).
# B1: BDNF: positive control group, final concentration of 10 ng/ml (protein, UniProt P23560 19-247, looked up)
# Neurotrophic factor BDNF …: APMKEANIRGQGGLAYPGVRTHGTLESVNGPKAGSRGLTSLADTFEHVIEELLDEDQKVRPNEENNKDADLYTSRVMLSSQVPLEPPLLFLLEEYKNYLDAANMSMRVRRHSDPARRGELSVCDSISEWVTAADKKTAVDMSGGTVTVLEKVPVSKGQLKQYFYETKCNPMGYTKEGCRGIDKRHWNSQCRTTQSYVRALTMDSKKRIGWRFIRIDTSCVCTLTIKRGR
# What was measured:
# [1] = system: primary cultured hippocampal neurons damaged by NMDA; assay: NMDA damage of primary cultured hippocampal neurons, MTT viability; assay type: cell-based, SD (Sprague-Dawley) rat; details: for hippocampal neuron activity after NMDA damage (MTT): MK801 10 μM
# Description: (1) Establishment of NMDA damage model. Primary culture of hippocampal neurons: SD (Sprague-Dawley) female rats pregnant for 18-19 days were anesthetized with a compound anaesthetic agent; fetal rat brains were taken under aseptic conditions and placed in HBSS solution (8.4 g/L of NaCl, 0.224 g/L of KCl, 2.38 g/L of HEPES, 500,000 units of penicillin sodium and 500,000 units of kanamycin sulfate; the pH was adjusted to 7.1-7.2 with 1M NaOH; then the osmotic pressure was adjusted to about 290±10 m Osm with ultrapure water; and after filtration, the solution was stored at 4° C.); the meninges were removed under a stereoscopic dissecting microscope; the bilateral hippocampus was removed and digested in 0.125% pancreatic protease at 37° C. for 10 min; and complete media (90% DMEM medium+10% FBS) (FBS: fetal bovine serum) was used to terminate the digestion; the bilateral hippocampus was washed for 3 times with the complete media to make a single cell suspension; the cell density was adjusted to about 7-8×10^5/ml; and the bilateral hippocampus was inoculated to a 6-well/96-well cell culture plate/60 mm culture dish/slide coated with L-polylysine. After 24 hours, the media were changed to serum-free neurobasal media (GIBCO) which were then placed in a 5% CO2, 37° C. incubator for culture; and half of the solution was changed every three days.
# (2) NMDA damage treatment of hippocampal neurons: (1) The original media were sucked out and the cells were washed with magnesium-free extracellular fluid for three times, each for 5 minutes. (2) 10 mM NMDA (N-methyl-D-aspartic acid) and 10 mM Gly (glycine) were prepared with magnesium-free extracellular fluid, and NMDA was prepared to different concentrations with the magnesium-free extracellular fluid, wherein the final concentration of Gly was 10 μM. […] After damage, the cells were washed for three times with DMEM medium, each for 5 minutes. (3) The original culture media were re-added to continue for culturing for 24 hours.
# (3) Detection of viability of hippocampal neurons after NMDA damage: (1) The hippocampal neurons were inoculated into a 96-well culture plate at 8×10^5 cells/ml, 0.1 ml per well, and cultured in a 5% CO2 incubator for 7-8 days. (2) After NMDA damage treatment and continuous culture for 24 hours, the culture solution was sucked off. (3) 100 μl of DMEM culture medium containing MTT (3-(4,5-dimethylthiazole-2)-2,5-diphenyltetrazolium bromide, 0.5 mg/ml) was added to each well, and the culture plate was put into 37° C., 5% CO2 incubator for culturing for 4 h. (4) 100 μl of 20% SDS was added to each well (20 g of sodium lauryl sulfate was dissolved in 50 ml of ddH2O+50 ml of N,N dimethylformamide) at 37° C. for 20 h. (5) The solution was shaken on a horizontal shaker for 5 min. (6) The optical density (OD) was measured at 570 nm (reference wavelength of 490 nm) on a microplate reader.
# (6) Effect of ABPPk2 on decrease of hippocampal neuron activity caused by NMDA. Effect of different concentrations of ABPPk2 on hippocampal neuron damage caused by NMDA (100 μM, 30 min). The experiment was divided into 9 experimental groups: a normal group, NMDA (100 μM, 30 min) group (as a control group), ABPPk2 (0.01 μg/ml) group, ABPPk2 (0.1 μg/ml) group, ABPPk2 (0.3 μg/ml) group, ABPPk2 (1 μg/ml) group, ABPPk2 (3 μg/ml) group, ABPPk2 (10 μg/ml) group and MK801 (dizocilpine, 10 μM) group (as a positive control group). Three administration ways were adopted for ABPPk2: (1) ABPPk2 was administered 12 hours before and during the NMDA damage. (2) ABPPk2 was administered during NMDA damage. (3) ABPPk2 was administered during 24 hours of culture after NMDA damage.
# [2] = system: primary cultured SD fetal rat cortical neurons after OGD damage; assay: OGD damage of cortical neurons, Hoechst 33258 staining of apoptotic bodies; assay type: cell-based; details: OGD 2 h, 24 h reoxygenation; ABPPk2 8, 40, 200 ng/ml, dose-dependent; BDNF 10 ng/ml
# Method: The suspension was filtered with a 400-mesh screen, centrifuged at 1000 rpm for 5 min, and blown to form the single cell suspension. DMEM high glucose complete medium (containing 10% fetal bovine serum) was inoculated in a culture dish or culture plate pre-coated with polylysine (PLL) to culture in 5% CO2 incubator with saturated humidity at 37° C. After the cells were cultured for 4 h to adhere to the wall, the cells were cultured with neuron culture medium (neurobasal+2% B27) for 3 d to observe the growth of neurons. The culture medium containing cytarabine (the final concentration of cytarabine was 2.5 μg/ml) was substituted with half quantity to culture for 3d to inhibit the growth of glial cells and miscellaneous cells to obtain purely cultured primary cortical nerve cells. The purity of the cortical neurons was identified by immunocytochemical staining as more than 90%.
# After the cortical neurons were cultured to the 7th day, the original culture medium was sucked out, and the cells were rinsed twice with sugar-free DMEM basal medium, for 5 min each time. Each OGD damage group was added with DMEM sugar-free culture medium, placed in a Billups-Rothenberg anaerobic culture chamber, filled with 95% N2/5% CO2 to balance for 15 min, and sealed for 2 h to build an OGD model. […]
molecule,measurement,setting,value
"C[C@]12N[C@H](Cc3ccccc31)c1ccccc12 [MK801, dizocilpine, reference compound]",hippocampal neuron activity after NMDA damage (MTT),"[1]; given 12 h before and during NMDA (100 μM, 0.5 h), ABPPk2 0.1, 0.3 and 1 μg/ml groups",can effectively reduce the decrease of hippocampal neuron activity caused by NMDA damage
same,hippocampal neuron activity after NMDA damage (MTT),"[1]; given during 24 h culture after NMDA damage (100 μM, 0.5 h), ABPPk2 0.1-10 μg/ml",can effectively reduce the decrease of hippocampal neuron activity caused by NMDA damage
same,hippocampal neuron activity after NMDA damage (MTT),"[1]; given during NMDA damage (100 μM, 0.5 h), ABPPk2 1 and 10 μg/ml groups",can effectively reduce the decrease of hippocampal neuron activity caused by NMDA damage
CLETSGSCIPGAQHNCCSGVCVPLVTLFYGVCY (Achyranthes bidentata Blume) [SEQ ID No: 3],protective effect on NMDA damage of primary hippocampal neurons,"[1]; overall statement, experimental solution of embodiment 6, concentration and administration way not stated",can effectively reduce the decrease of hippocampal neuron activity caused by NMDA damage
B1,apoptotic bodies of cortical neuron nuclei,[2],the apoptotic bodies are reduced
